For assay [1], the target named is T1, ABHD6 (Mus musculus, UniProt Q8R2Y0).
T1 sequence (Q8R2Y0 1-336): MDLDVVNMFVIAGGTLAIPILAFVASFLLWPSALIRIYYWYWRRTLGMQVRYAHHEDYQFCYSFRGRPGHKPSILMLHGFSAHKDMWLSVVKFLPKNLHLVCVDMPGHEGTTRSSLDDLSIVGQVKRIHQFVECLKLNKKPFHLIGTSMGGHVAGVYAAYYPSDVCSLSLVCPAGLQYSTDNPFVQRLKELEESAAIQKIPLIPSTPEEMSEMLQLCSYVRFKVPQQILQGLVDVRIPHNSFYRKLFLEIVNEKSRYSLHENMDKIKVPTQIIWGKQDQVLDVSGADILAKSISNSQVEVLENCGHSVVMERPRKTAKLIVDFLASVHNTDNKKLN
Briefly: biochemical. The note with it: in vitro competitive ABPP.

In the next assay the target is T2, Mouse brain MAGL (Mus musculus, UniProt O35678).
T2 construct: from tissue; host or cells: brain of wild-type C57Bl/6J mice dosed by oral gavage
T2 sequence (O35678 1-303): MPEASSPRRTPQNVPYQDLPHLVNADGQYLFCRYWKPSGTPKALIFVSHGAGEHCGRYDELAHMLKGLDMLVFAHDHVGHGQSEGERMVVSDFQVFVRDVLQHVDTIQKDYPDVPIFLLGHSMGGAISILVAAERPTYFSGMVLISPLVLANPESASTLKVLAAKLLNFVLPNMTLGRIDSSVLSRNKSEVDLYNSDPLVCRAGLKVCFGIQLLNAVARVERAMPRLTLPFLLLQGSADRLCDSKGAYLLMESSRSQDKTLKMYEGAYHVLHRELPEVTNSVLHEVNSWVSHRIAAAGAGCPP
As to the kind of experiment: Mouse brain proteomes from inhibitor treated mice (oral gavage, ABPP analysis). Format: in vivo. Conditions: p.o., sacrificed 4 h following administration. Here is the method: After 30 min, FP—Rh (1.0 μL, 50 μM in DMSO) was added and the mixture was incubated for another 30 min at 37° C. Reactions were quenched with SDS loading buffer (50 μL-4×) and run on SDS-PAGE. Following gel imaging, serine hydrolase activity was determined by measuring fluorescent intensity of gel bands corresponding to MAGL, ABHD6 and FAAH using ImageJ 1.43 u software.
Inhibitors were administered to wild-type C57Bl/6J by oral gavage in a vehicle of polyethylene glycol. Each animal was sacrificed 4 h following administration and brain proteomes were prepared and analyzed according to previously established methods (See Niphakis, M. J., et al. (2011) ACS Chem. Neurosci. and Long, J. Z., et al. Nat. Chem. Biol. 5:37-44).

In assay [2] the target is T3, FAAH (Mus musculus, UniProt O08914).
T3 sequence (O08914 1-579): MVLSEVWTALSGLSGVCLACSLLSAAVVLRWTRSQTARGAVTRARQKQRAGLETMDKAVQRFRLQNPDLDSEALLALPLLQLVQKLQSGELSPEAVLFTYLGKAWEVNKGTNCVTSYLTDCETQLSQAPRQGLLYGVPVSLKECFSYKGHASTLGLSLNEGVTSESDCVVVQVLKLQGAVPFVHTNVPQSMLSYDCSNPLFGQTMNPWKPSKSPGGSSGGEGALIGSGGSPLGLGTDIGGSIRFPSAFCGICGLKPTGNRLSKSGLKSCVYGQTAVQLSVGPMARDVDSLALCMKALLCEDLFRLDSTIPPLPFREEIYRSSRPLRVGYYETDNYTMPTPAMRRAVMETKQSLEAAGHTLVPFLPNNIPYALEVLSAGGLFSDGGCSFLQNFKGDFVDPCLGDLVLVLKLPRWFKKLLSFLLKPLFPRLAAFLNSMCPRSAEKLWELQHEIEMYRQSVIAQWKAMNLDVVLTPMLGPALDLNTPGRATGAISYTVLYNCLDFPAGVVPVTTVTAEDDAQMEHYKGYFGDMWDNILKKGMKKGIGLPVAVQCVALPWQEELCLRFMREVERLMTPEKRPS
Briefly: biochemical. The note with it: in vitro competitive ABPP.

Assay [3] deals with T1, ABHD6. Briefly: In vitro competitive activity-based protein profiling (Table 2, % inhibition at 1 μM). Format: biochemical. The note with it: read-out: % Inhibition at 1 μM ABHD6.
Assay [4] has as its target T3, FAAH. The description is as above. Format: biochemical. Conditions: read-out: % Inhibition at 1 μM FAAH.
In assay [5] the target is T4, MAGL (Mus musculus, UniProt O35678).
T4 sequence (O35678 1-303): T2 sequence (O35678 1-303)
The description is as above. Format: biochemical. The note with it: read-out: % Inhibition at 1 μM MAGL. As for the experimental part: After 30 min, FP—Rh (1.0 μL, 50 μM in DMSO) was added and the mixture was incubated for another 30 min at 37° C. Reactions were quenched with SDS loading buffer (50 μL-4×) and run on SDS-PAGE.
Cell lysates were diluted with mock proteomes for use in competitive ABPP experiments.

Assay [6] deals with T4, MAGL. As to the kind of experiment: biochemical. Conditions: mouse; in vitro competitive ABPP; read-out: Mouse (IC50 value, nM) MAGL.

The values below come from patent US9828379B2 (priority 2013, dated 2017).

Each structure is given as a SMILES string.

Turning to `CCn1cc(CN2CC3CN(C(=O)OC(C(F)(F)F)C(F)(F)F)CC3C2)c(-c2cccc(N3CCC3)c2)n1` (centres unmarked) [Example 66, 1,1,1,3,3,3-Hexafluoropropan-2-yl 5-([3-[3-(azetidin-1-yl)phenyl]-1-ethyl-1H-pyrazol-4-yl]methyl)-octahydropyrrolo[3,4-c]pyrrole-2-carboxylate], the results for the IC50 at ABHD6 [1], at FAAH [2] and on MAGL [6] were 1000 to 10000 nM, 1000 to 10000 nM and under 100 nM, respectively. The compound further returned an inhibition at 5 mg/kg on Mouse brain MAGL of at most 25%. The values for the inhibition at 1 µM on ABHD6 [3], at FAAH [4] and on MAGL [5] were 25 to 75%, under 25% and over 75%, respectively.

Consider `CCn1ncc(CN2CC3CN(C(=O)OC(C(F)(F)F)C(F)(F)F)CC3C2)c1C(=O)NCCc1cccc(Cl)c1` (centres unmarked) [Example 180, 1,1,1,3,3,3-hexafluoropropan-2-yl 5-((5-((3-chlorophenethyl)carbamoyl)-1-ethyl-1H-pyrazol-4-yl)methyl)hexahydropyrrolo[3,4-c]pyrrole-2(1H)-carboxylate], for which the IC50 was 1000 to 10000 nM on ABHD6 [1], over 10000 nM at FAAH [2] and under 100 nM at MAGL [6]. The compound also registered an inhibition at 5 mg/kg against Mouse brain MAGL of at most 25%. For the same compound, the inhibition at 1 µM is under 25% on ABHD6 [3], under 25% at FAAH [4] and over 75% on MAGL [5].

For `O=C(OC(C(F)(F)F)C(F)(F)F)N1CC2CN(Cc3ccc(Cl)cc3N3CCC4(CCNC4=O)CC3)CC2C1` (centres unmarked) [Example 38, 1,1,1,3,3,3-Hexafluoropropan-2-yl 5-[(4-chloro-2-[1-oxo-2,8-diazaspiro[4.5]decan-8-yl]phenyl)methyl]-octahydropyrrolo[3,4-c]pyrrole-2-carboxylate], the 50% inhibitory concentration (IC50) at ABHD6 [1] was 1000 to 10000 nM; on FAAH [2], over 10000 nM; on MAGL [6], under 100 nM. This compound also gave an inhibition at 5 mg/kg against Mouse brain MAGL of at most 25%. Further, the inhibition at 1 µM on ABHD6 [3] was under 25%; at FAAH [4], under 25%; at MAGL [5] it was over 75%.

In the case of `CCn1cc(CN2CC3CN(C(=O)OC(C(F)(F)F)C(F)(F)F)CC3C2)c(-c2cccc(N3CCOCC3)c2)n1` (centres unmarked) [Example 65, 1,1,1,3,3,3-Hexafluoropropan-2-yl 5-([1-ethyl-3-[3-(morpholin-4-yl)phenyl]-1H-pyrazol-4-yl]methyl)-octahydropyrrolo[3,4-c]pyrrole-2-carboxylate], the IC50 is 1000 to 10000 nM at ABHD6 [1], 1000 to 10000 nM on FAAH [2] and under 100 nM at MAGL [6]. On Mouse brain MAGL, this compound came in with an inhibition at 5 mg/kg of at most 25%. Further, the figures for the inhibition at 1 µM on ABHD6 [3], at FAAH [4] and at MAGL [5] were under 25%, under 25% and over 75%, respectively.

On to `CC(C)n1cc(CN2CC3CN(C(=O)OC(C(F)(F)F)C(F)(F)F)CC3C2)c(C2CCN(S(C)(=O)=O)CC2)n1` (centres unmarked) [Example 57, 1,1,1,3,3,3-Hexafluoropropan-2-yl 5-[[3-(1-methanesulfonylpiperidin-4-yl)-1-(propan-2-yl)-1H-pyrazol-4-yl]methyl]-octahydropyrrolo[3,4-c]pyrrole-2-carboxylate], for which the half-maximal inhibitory concentration (IC50) on ABHD6 [1] was 1000 to 10000 nM; at FAAH [2] it was over 10000 nM; on MAGL [6] it was under 100 nM. The compound further displayed an inhibition at 5 mg/kg against Mouse brain MAGL of at most 25%. Moreover, the inhibition at 1 µM on ABHD6 [3] is 25 to 75%; on FAAH [4], under 25%; on MAGL [5], over 75%.

Regarding `CC(C)c1cc(CN2CC3CN(C(=O)OC(C(F)(F)F)C(F)(F)F)CC3C2)n(C2CCOCC2)n1` (centres unmarked) [Example 62, 1,1,1,3,3,3-Hexafluoropropan-2-yl 5-[[1-(oxan-4-yl)-3-(propan-2-yl)-1H-pyrazol-5-yl]methyl]-octahydropyrrolo[3,4-c]pyrrole-2-carboxylate], the IC50 at ABHD6 [1] is 1000 to 10000 nM; at FAAH [2], 1000 to 10000 nM; on MAGL [6], under 100 nM. This compound also came in with an inhibition at 5 mg/kg on Mouse brain MAGL of at least 75%. In addition, the inhibition at 1 µM at ABHD6 [3] is 25 to 75%; at FAAH [4], under 25%; on MAGL [5], over 75%.

On to `CCc1cc(CN2CC3CN(C(=O)OC(C(F)(F)F)C(F)(F)F)CC3C2)n(-c2ccccc2Cl)n1` (centres unmarked) [Example 169, 1,1,1,3,3,3-hexafluoropropan-2-yl 5-[[1-(2-chlorophenyl)-3-ethyl-1H-pyrazol-5-yl]methyl]-octahydropyrrolo[3,4-c]pyrrole-2-carboxylate], for which the values for the IC50 at ABHD6 [1], on FAAH [2] and on MAGL [6] were 1000 to 10000 nM, 1000 to 10000 nM and under 100 nM, respectively. This compound displayed an inhibition at 5 mg/kg on Mouse brain MAGL of at most 25%. For the same compound, the results for the inhibition at 1 µM on ABHD6 [3], on FAAH [4] and at MAGL [5] were 25 to 75%, under 25% and over 75%, respectively.

`CC(C)n1cc(CN2CC3CN(C(=O)OC(C(F)(F)F)C(F)(F)F)CC3C2)c(-c2ccccc2Cl)n1` (centres unmarked) [Example 54, 1,1,1,3,3,3-Hexafluoropropan-2-yl 5-[[3-(2-chlorophenyl)-1-(propan-2-yl)-1H-pyrazol-4-yl]methyl]-octahydropyrrolo[3,4-c]pyrrole-2-carboxylate]: the IC50 at ABHD6 [1] was 100 to 1000 nM; on FAAH [2], over 10000 nM; at MAGL [6] it was under 100 nM. The same compound yielded an inhibition at 5 mg/kg against Mouse brain MAGL of 25 to 75%. The inhibition at 1 µM at ABHD6 [3] is 25 to 75%; at FAAH [4], under 25%; on MAGL [5] it was over 75%.

Turning to `CCn1cc(CN2CC3CN(C(=O)OC(C(F)(F)F)C(F)(F)F)CC3C2)c(-c2ccc(N3CCC3)cc2)n1` (centres unmarked) [Example 69, 1,1,1,3,3,3-Hexafluoropropan-2-yl 5-([3-[4-(azetidin-1-yl)phenyl]-1-ethyl-1H-pyrazol-4-yl]methyl)-octahydropyrrolo[3,4-c]pyrrole-2-carboxylate], the figures for the IC50 on ABHD6 [1], at FAAH [2] and at MAGL [6] were 1000 to 10000 nM, 1000 to 10000 nM and under 100 nM, respectively. Moreover, the inhibition at 5 mg/kg against Mouse brain MAGL is at most 25%. Moreover, the inhibition at 1 µM at ABHD6 [3] is 25 to 75%; on FAAH [4], under 25%; on MAGL [5], over 75%.

In the case of `CS(=O)(=O)N1CCN(c2cc(Cl)ccc2CN2CC3CN(C(=O)OC(C(F)(F)F)C(F)(F)F)CC3C2)CC1` (centres unmarked) [Example 36, 1,1,1,3,3,3-Hexafluoropropan-2-yl 5-[[4-chloro-2-(4-methanesulfonylpiperazin-1-yl)phenyl]methyl]-octahydropyrrolo[3,4-c]pyrrole-2-carboxylate], the IC50 at ABHD6 [1] is 100 to 1000 nM; on FAAH [2] it was 1000 to 10000 nM; on MAGL [6], under 100 nM. Besides, the inhibition at 5 mg/kg at Mouse brain MAGL was 25 to 75%. The inhibition at 1 µM at ABHD6 [3] is 25 to 75%; on FAAH [4], under 25%; at MAGL [5] it was over 75%.

Turning to `CC(C)n1cc(CN2CC3CN(C(=O)OC(C(F)(F)F)C(F)(F)F)CC3C2)c(-c2cccc(Cl)c2)n1` (centres unmarked) [Example 174, 1,1,1,3,3,3-hexafluoropropan-2-yl 5-[[3-(3-chlorophenyl)-1-(propan-2-yl)-1H-pyrazol-4-yl]methyl]-octahydropyrrolo[3,4-c]pyrrole-2-carboxylate], the half-maximal inhibitory concentration (IC50) was 1000 to 10000 nM on ABHD6 [1], 1000 to 10000 nM at FAAH [2] and under 100 nM on MAGL [6]. The same compound showed an inhibition at 5 mg/kg on Mouse brain MAGL of at most 25%. Besides, the inhibition at 1 µM on ABHD6 [3] is 25 to 75%; at FAAH [4] it was under 25%; on MAGL [5], over 75%.

The IC50 is the midpoint of a concentration-inhibition curve. The inhibition is the drop in the measured response relative to a control, in per cent.
